From patent US8420820B2, “Pyrrolopyridinylpyrimidin-2-ylamine derivatives” (Merck Patent GmbH, priority 2008, dated 2013)

Assays:
[1] = target: T1, PDK1 (Homo sapiens, UniProt O15530); experiment: Test for the inhibition of PDK1 (flashplate, 33P-ATP); assay type: biochemical; details: His6-PDK1 3.4 nM, 4 μM ATP, 30° C., 60 min
T1 construct: His6 (N)
Procedure: The experimental batches are carried out in a flashplate system with 384 wells/microtitration plate.
In each case, the PDK1 sample His6-PDK1(SEQ ID NO: 2)(1-50)(3.4 nM), the PDK1 substrate biotin-bA-bA-[…] (SEQ ID NO: 3) (400 nM), 4 μM ATP (with 0.2 μCi of ^33P-ATP/well) and the test substance in 50 μl of conventional experimental solution per well are incubated at 30° C. for 60 min. The test substances are employed in corresponding concentrations (if desired in a dilution series). The control is carried out without test substance. The reaction is stopped using standard methods and washed. The activity of the kinase is measured via the incorporated radioactivity in top count. In order to determine the non-specific kinase reaction (blank value), the experimental batches are carried out in the presence of 100 nM staurosporin.
The radioactivity (decompositions per minute) of the blank value (no use of test substance in the presence of staurosporin) is subtracted from all other radioactivity values. The controls (kinase activity without test substance) are set equal to 100 percent and all other radioactivity values (after subtracting the blank value) are expressed set in relation thereto (for example in % of the control).
IC50 values (50% inhibition) are determined with the aid of statistics programmes, such as, for example, RS1.

[2] = system: PDK1 kinase activity in PC3 cells (phospho-T308-PKB); experiment: Cellular testing of PDK1 kinase inhibitors in PC3 cells (Luminex, phospho-T308-PKB); assay type: cell-based; details: Homo sapiens, PC-3, 0.5 h, 30 min with test substance, serum-free, phospho-T308-PKB by Luminex, read-out: IC50 [PC3 P-PKB Thr308]
Procedure: Method for the Cellular Testing of PDK1 Kinase Inhibitors in PC3 Cells.
The cellular assay for the determination of the PDK1 kinase activity is carried out as a Luminex assay in the 96-well format. PC3 cells are sown at 20,000 cells per well in 100 μl of medium (45% of […]/45% of Ham's F12/10% of FCS) and incubated on the following day for 30 min with a serial dilution of the test substance (7 concentrations) under serum-free conditions. The cells are subsequently lysed using 90 μl of lysis buffer (20 mM tris/HCl pH 8.0, 150 mM NaCl, 1% of NP40, 10% of glycerol, 1% of phosphatase inhibitor I, 1% of phosphatase inhibitor II, 0.1% of protease inhibitor cocktail III, 0.01% of benzonase) per well, and the lysates are separated off from insoluble cell constituents by means of centrifugation through a 96-well filter plate (0.65 μm). The lysates are incubated overnight at 4° C. with shaking with Luminex beads to which an anti-total PKB antibody is coupled. The detection is carried out on the following day by addition of a phospho-T308-PKB antibody and a species-specific […] secondary antibody. The detection of phospho-T308-PKB is carried out by measurement in a Luminex100 instrument by determination of 100 events per cavity in a measurement time of 60 sec. As pharmacological blank, the signals obtained from cells which have been treated with 10 μM staurosporin are subtracted from all other batches. The control value used for maximum phosphorylation of PKB on T308 are the signals from cells which have only been treated with the solvent (0.3% of DMSO). The values of the batches treated with test substance are calculated therefrom as percentage of control, and IC50 values are determined by means of RS1.

T1 sequence (O15530 51-556): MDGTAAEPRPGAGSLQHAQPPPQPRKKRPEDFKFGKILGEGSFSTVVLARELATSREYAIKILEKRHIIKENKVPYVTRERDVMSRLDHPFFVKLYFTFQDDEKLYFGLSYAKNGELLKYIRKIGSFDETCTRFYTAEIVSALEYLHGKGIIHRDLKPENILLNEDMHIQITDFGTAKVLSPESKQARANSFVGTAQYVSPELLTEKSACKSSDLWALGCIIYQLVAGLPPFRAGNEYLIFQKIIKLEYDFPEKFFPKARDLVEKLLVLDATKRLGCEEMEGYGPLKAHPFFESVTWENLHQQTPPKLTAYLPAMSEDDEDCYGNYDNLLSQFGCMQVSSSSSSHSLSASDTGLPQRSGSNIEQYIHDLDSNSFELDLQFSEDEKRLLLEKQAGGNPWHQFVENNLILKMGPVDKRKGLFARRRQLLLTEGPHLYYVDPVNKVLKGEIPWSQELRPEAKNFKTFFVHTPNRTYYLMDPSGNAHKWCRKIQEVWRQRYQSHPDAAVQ

Compound | IC50 [1] | IC50 [2]
CCc1cc(-c2c[nH]c3ncc(-c4cnn(C)c4)cc23)nc(NC)n1 [Compound A63, {4-Ethyl-6-[5-(1-methyl-1H-pyrazol-4-yl)-1H-pyrrolo[2,3-b]pyridin-3-yl]-pyrimidin-2-yl}methylamine] | 10 to 1000 nM | –
CCc1cc(-c2c[nH]c3ncc(-c4cnn(CC5CCNC5)c4)cc23)nc(N)n1 (stereo not shown) [Compound A9] | 10 to 1000 nM | 10000 to 20000 nM
CC(C)n1cc(-c2cnc3[nH]cc(-c4cc(CCN5CCN(C)CC5)nc(N)n4)c3c2)cn1 [Compound A43, 4-[5-(1-Isopropyl-1H-pyrazol-4-yl)-1H-pyrrolo[2,3-b]pyridin-3-yl]-6-[2-(4-methylpiperazin-1-yl)ethyl]pyrimidin-2-ylamine] | 10 to 1000 nM | 10000 to 20000 nM
CCCCc1cc(-c2c[nH]c3ncc(-c4cnn(CCO)c4)cc23)nc(N)n1 [Compound A88, 2-{4-[3-(2-Amino-6-butylpyrimidin-4-yl)-1H-pyrrolo[2,3-b]pyridin-5-yl]pyrazol-1-yl}ethanol] | 10 to 1000 nM | 1000 to 10000 nM
CCc1cc(-c2c[nH]c3ncc(-c4cnn(C(C)C)c4)cc23)nc(OC)n1 [Compound A75, 3-(6-Ethyl-2-methoxypyrimidin-4-yl)-5-(1-isopropyl-1H-pyrazol-4-yl)-1H-pyrrolo[2,3-b]pyridine] | 10 to 1000 nM | –
CCCCc1cc(-c2c[nH]c3ncc(-c4cnn(CC(=O)N5CCCCC5)c4)cc23)nc(N)n1 [Compound A58, 2-{4-[3-(2-amino-6-butylpyrimidin-4-yl)-1H-pyrrolo[2,3-b]pyridin-5-yl]-pyrazol-1-yl}-1-piperidin-1-ylethanone] | 10 to 1000 nM | 1000 to 10000 nM
CCc1cc(-c2c[nH]c3ncc(-c4cnn(C(C)C(=O)Nc5ccc6[nH]ccc6c5)c4)cc23)nc(NC)n1 (stereo not shown) [Compound A72, 2-{4-[3-(6-Ethyl-2-methylaminopyrimidin-4-yl)-1H-pyrrolo[2,3-b]pyridin-5-yl]-pyrazol-1-yl}-N-(1H-indol-5-yl)propionamide] | 10 to 1000 nM | –
CCc1cc(-c2c[nH]c3ncc(-c4cnn(CCO)c4)cc23)nc(NC)n1 [Compound A68, 2-{4-[3-(6-Ethyl-2-methylaminopyrimidin-4-yl)-1H-pyrrolo[2,3-b]pyridin-5-yl]-pyrazol-1-yl}ethanol] | 10 to 1000 nM | –
CCc1cc(-c2c[nH]c3ncc(-c4ncc(-c5cccc(N)c5)o4)cc23)nc(N)n1 [Compound A42, 4-{5-[5-(3-Aminophenyl)oxazol-2-yl]-1H-pyrrolo[2,3-b]pyridin-3-yl}-6-ethylpyrimidin-2-ylamine] | 1000 to 10000 nM | 10000 to 20000 nM
CCCCc1cc(-c2c[nH]c3ncc(-c4cnn(C5CCNCC5)c4)cc23)nc(NC)n1 [Compound A70, {4-Butyl-6-[5-(1-piperidin-4-yl-1H-pyrazol-4-yl)-1H-pyrrolo[2,3-b]pyridin-3-yl]pyrimidin-2-yl}methylamine] | 10 to 1000 nM | –
CCc1cc(-c2c[nH]c3ncc(-c4cn[nH]c4)cc23)nc(NC)n1 [Compound A62, {4-Ethyl-6-[5-(1H-pyrazol-4-yl)-1H-pyrrolo[2,3-b]pyridin-3-yl]pyrimidin-2-yl}-methylamine] | 10 to 1000 nM | –
CCc1cc(-c2c[nH]c3ncc(-c4cnn(CCN(C)C)c4)cc23)nc(N)n1 [Compound A1, 4-{5-[1-(2-dimethylaminoethyl)-1H-pyrazol-4-yl]-1H-pyrrolo[2,3-b]pyridin-3-yl}-6-ethylpyrimidin-2-ylamine] | 10 to 1000 nM | 10000 to 20000 nM
CC(=O)NCCCc1cc(-c2c[nH]c3ncc(-c4cnn(C(C)C)c4)cc23)nc(N)n1 [Compound A97, N-(3-{2-Amino-6-[5-(1-isopropyl-1H-pyrazol-4-yl)-1H-pyrrolo[2,3-b]pyridin-3-yl]pyrimidin-4-yl}propyl)acetamide] | 10 to 1000 nM | 10000 to 20000 nM
CCCCc1cc(-c2c[nH]c3ncc(-c4cnn(CCO)c4)cc23)nc(NC)n1 [Compound A67, 2-{4-[3-(6-Butyl-2-methylaminopyrimidin-4-yl)-1H-pyrrolo[2,3-b]pyridin-5-yl]-pyrazol-1-yl}ethanol] | 10 to 1000 nM | –
CCc1cc(-c2c[nH]c3ncc(-c4cnn(CC(=O)N5CCCc6ccccc65)c4)cc23)nc(NC)n1 [Compound A73, 1-(3,4-Dihydro-2H-quinolin-1-yl)-2-{4-[3-(6-ethyl-2-methylaminopyrimidin-4-yl)-1H-pyrrolo[2,3-b]pyridin-5-yl]pyrazol-1-yl}ethanone] | 10 to 1000 nM | –
CCc1cc(-c2c[nH]c3ncc(-c4cnn(Cc5ccc(F)c(F)c5)c4)cc23)nc(N)n1 [Compound A99, 4-{5-[1-(3,4-Difluorobenzyl)-1H-pyrazol-4-yl]-1H-pyrrolo[2,3-b]pyridin-3-yl}-6-ethylpyrimidin-2-ylamine] | 10 to 1000 nM | 10000 to 20000 nM
CCCC(O)c1cc(-c2c[nH]c3ncccc23)nc(N)n1 (stereo not shown) [Compound A48, 1-[2-Amino-6-(1H-pyrrolo[2,3-b]pyridin-3-yl)pyrimidin-4-yl]butan-1-ol] | 1000 to 10000 nM | 10000 to 20000 nM
CCc1cc(-c2c[nH]c3ncc(-c4cnn(CC(=O)N5CCCCC5)c4)cc23)nc(NC)n1 [Compound A65, 2-{4-[3-(6-Ethyl-2-methylaminopyrimidin-4-yl)-1H-pyrrolo[2,3-b]pyridin-5-yl]-pyrazol-1-yl}-1-piperidin-1-ylethanone] | 10 to 1000 nM | –
COc1nc(Cc2ccccc2)cc(-c2c[nH]c3ncc(-c4cnn(C(C)C)c4)cc23)n1 [Compound A74, 3-(6-Benzyl-2-methoxypyrimidin-4-yl)-5-(1-isopropyl-1H-pyrazol-4-yl)-1H-pyrrolo[2,3-b]pyridine] | 1000 to 10000 nM | –
Nc1nc(CCCCO)cc(-c2c[nH]c3ncccc23)n1 [Compound A45, 4-[2-Amino-6-(1H-pyrrolo[2,3-b]pyridin-3-yl)pyrimidin-4-yl]butan-1-ol] | 1000 to 10000 nM | –
CCc1cc(-c2c[nH]c3ncc(-c4cnn(C(C)C)c4)cc23)nc(NC)n1 [Compound A60, {4-Ethyl-6-[5-(1-isopropyl-1H-pyrazol-4-yl)-1H-pyrrolo[2,3-b]pyridin-3-yl]-pyrimidin-2-yl}methylamine] | 10 to 1000 nM | –
CC(C)Cn1cc(-c2cnc3[nH]cc(-c4cc(CCCN)nc(N)n4)c3c2)cn1 [Compound A84, 4-(3-Aminopropyl)-6-[5-(1-isobutyl-1H-pyrazol-4-yl)-1H-pyrrolo[2,3-b]pyridin-3-yl]pyrimidin-2-ylamine] | 10 to 1000 nM | –
Nc1nc(CCC(=O)N2CCOCC2)cc(-c2c[nH]c3ncccc23)n1 [Compound A82, 3-[2-Amino-6-(1H-pyrrolo[2,3-b]pyridin-3-yl)pyrimidin-4-yl]-1-morpholin-4-ylpropan-1-one] | 1000 to 10000 nM | –
CCc1cc(-c2c[nH]c3ncc(-c4cnn(CCN(C)C)c4)cc23)nc(NC)n1 [Compound A61, (4-{5-[1-(2-Dimethylaminoethyl)-1H-pyrazol-4-yl]-1H-pyrrolo[2,3-b]pyridin-3-yl}-6-ethylpyrimidin-2-yl)methylamine] | 10 to 1000 nM | –
CCc1cc(-c2c[nH]c3ncc(-c4cnn(CC(=O)N5CCCC5)c4)cc23)nc(NC)n1 [Compound A66, 2-{4-[3-(6-Ethyl-2-methylaminopyrimidin-4-yl)-1H-pyrrolo[2,3-b]pyridin-5-yl]-pyrazol-1-yl}-1-pyrrolidin-1-ylethanone] | 10 to 1000 nM | –
CN(C)CCNC(=O)CCc1cc(-c2c[nH]c3ncccc23)nc(N)n1 [Compound A83, 3-[2-Amino-6-(1H-pyrrolo[2,3-b]pyridin-3-yl)pyrimidin-4-yl]-N-(2-dimethylaminoethyl)propionamide] | 1000 to 10000 nM | –
CCCCc1cc(-c2c[nH]c3ncc(-c4cnn(C5CCN(C)CC5)c4)cc23)nc(NC)n1 [Compound A71, (4-Butyl-6-{5-[1-(1-methylpiperidin-4-yl)-1H-pyrazol-4-yl]-1H-pyrrolo[2,3-b]-pyridin-3-yl}pyrimidin-2-yl)methylamine] | 10 to 1000 nM | –
CCc1cc(-c2c[nH]c3ncc(-c4cnn(C5CCNCC5)c4)cc23)nc(NC)n1 [Compound A64, {4-Ethyl-6-[5-(1-piperidin-4-yl-1H-pyrazol-4-yl)-1H-pyrrolo[2,3-b]pyridin-3-yl]pyrimidin-2-yl}methylamine] | 10 to 1000 nM | –
